{
  "source": "BindingDB's records for doi:10.1074/jbc.M110.206193",
  "about": "(Takeda Pharmaceutical, 2011)",
  "key": {"[1]": {"target": "Receptor tyrosine-protein kinase erbB-4 (Homo sapiens, UniProt Q15303)", "sequence (Q15303 whole entry)": "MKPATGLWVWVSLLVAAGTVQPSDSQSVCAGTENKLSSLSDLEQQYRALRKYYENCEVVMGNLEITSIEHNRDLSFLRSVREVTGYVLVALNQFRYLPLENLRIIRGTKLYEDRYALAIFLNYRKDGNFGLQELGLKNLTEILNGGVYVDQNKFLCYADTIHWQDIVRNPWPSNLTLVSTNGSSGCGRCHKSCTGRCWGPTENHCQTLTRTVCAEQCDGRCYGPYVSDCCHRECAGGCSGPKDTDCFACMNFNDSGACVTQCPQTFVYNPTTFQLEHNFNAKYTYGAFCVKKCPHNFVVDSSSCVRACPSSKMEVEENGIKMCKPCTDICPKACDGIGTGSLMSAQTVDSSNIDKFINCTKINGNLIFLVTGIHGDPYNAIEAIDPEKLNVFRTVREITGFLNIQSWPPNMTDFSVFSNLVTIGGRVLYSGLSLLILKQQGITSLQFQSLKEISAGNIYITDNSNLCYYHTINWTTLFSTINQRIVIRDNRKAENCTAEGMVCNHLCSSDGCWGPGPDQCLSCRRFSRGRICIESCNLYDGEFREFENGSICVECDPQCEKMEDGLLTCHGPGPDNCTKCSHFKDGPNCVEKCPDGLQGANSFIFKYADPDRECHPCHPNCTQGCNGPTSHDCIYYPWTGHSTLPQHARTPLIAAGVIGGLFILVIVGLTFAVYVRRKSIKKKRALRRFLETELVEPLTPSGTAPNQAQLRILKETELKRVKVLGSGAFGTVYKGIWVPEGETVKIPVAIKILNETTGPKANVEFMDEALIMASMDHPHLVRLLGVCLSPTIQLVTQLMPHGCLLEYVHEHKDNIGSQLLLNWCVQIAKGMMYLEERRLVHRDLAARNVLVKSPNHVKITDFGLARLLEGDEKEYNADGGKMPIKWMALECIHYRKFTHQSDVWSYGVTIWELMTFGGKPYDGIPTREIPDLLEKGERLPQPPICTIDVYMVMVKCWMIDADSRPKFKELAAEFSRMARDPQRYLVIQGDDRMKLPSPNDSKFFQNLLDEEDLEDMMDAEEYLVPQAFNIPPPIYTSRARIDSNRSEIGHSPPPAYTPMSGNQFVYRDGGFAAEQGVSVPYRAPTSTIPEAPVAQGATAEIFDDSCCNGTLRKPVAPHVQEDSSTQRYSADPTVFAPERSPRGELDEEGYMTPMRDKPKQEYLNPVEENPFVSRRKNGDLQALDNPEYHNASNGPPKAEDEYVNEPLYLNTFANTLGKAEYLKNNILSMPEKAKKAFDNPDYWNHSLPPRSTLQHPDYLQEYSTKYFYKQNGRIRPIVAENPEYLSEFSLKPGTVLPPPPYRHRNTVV", "assay": "Enzyme Assay", "conditions": "pH 7.5", "description": "(§1) The EGFR, HER2 and HER4 kinase assay were performed using radiolabeled [gamma-32P] ATP from GE Healthcare."}, "[2]": {"target": "Epidermal growth factor receptor (Homo sapiens, UniProt P00533)", "sequence (P00533 whole entry)": "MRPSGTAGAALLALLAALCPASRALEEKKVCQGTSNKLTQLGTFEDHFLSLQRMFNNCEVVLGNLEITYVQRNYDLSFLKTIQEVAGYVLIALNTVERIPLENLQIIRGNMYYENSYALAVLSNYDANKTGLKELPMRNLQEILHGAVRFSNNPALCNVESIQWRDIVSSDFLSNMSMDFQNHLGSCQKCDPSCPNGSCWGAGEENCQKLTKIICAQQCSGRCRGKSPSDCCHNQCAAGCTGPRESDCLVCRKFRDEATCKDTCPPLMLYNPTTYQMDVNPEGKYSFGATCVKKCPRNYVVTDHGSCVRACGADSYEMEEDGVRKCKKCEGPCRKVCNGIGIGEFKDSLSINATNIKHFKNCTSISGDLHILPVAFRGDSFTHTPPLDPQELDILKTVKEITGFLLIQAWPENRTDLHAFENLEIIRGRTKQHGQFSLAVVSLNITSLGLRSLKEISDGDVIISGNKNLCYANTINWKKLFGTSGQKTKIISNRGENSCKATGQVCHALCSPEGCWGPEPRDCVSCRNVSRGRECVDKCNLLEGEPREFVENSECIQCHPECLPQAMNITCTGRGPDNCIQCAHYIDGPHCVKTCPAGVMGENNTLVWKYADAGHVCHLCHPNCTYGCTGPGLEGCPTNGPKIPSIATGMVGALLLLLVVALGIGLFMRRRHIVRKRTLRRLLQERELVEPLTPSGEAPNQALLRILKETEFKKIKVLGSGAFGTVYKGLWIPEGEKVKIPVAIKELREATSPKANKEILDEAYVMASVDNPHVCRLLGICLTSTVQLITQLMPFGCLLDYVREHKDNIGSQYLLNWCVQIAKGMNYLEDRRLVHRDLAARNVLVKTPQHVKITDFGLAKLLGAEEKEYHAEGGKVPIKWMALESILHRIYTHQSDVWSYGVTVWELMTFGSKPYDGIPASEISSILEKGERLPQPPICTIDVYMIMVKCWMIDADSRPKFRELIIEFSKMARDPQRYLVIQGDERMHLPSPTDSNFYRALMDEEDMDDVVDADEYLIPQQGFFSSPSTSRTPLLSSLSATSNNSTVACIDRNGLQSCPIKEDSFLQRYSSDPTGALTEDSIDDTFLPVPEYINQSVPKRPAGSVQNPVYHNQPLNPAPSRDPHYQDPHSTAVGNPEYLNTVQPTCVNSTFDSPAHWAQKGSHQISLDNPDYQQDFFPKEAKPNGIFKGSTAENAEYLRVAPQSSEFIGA", "assay": "Enzyme Assay", "conditions": "pH 7.5", "description": "as §1"}},
  "data": [
    {"smiles": "OCCOCn1ccc2ncnc(Nc3cnc(Oc4cccc(C(F)(F)F)c4)c(Cl)c3)c21", "note": "[SYR127063]", "values": [
      {"measurement": "IC50", "setting": "[1]", "result": "> 10000", "unit": "nM"},
      {"measurement": "IC50", "setting": "[2]", "result": 429, "unit": "nM"}
    ]}
  ]
}
